Measured values reported in US4443436A, “C-20-Modified macrolide derivatives of the macrolide antibiotics tylosin, desmycosin, macrocin, and lactenocin” (Eli Lilly and Company, priority 1982, dated 1984).
≈ marks a conversion by molar mass, not a printed value. Read-outs that look alike come from different tables or passages of the source.

Legend:
Mycoplasma gallisepticum = test: MIC, broth-dilution microtiter test, Mycoplasma gallisepticum; type: cell-based
Excerpt: (§1) The MIC's in Table X were obtained using conventional broth-dilution microtiter tests.

[1] = system: Pasteurella multocida 17E; test: MIC, broth-dilution microtiter test, Pasteurella multocida 17E; type: cell-based; conditions: Pasteurella multocida 17E, bovine isolate, broth-dilution microtiter
Excerpt: as §1

Streptococcus Group 9960 = test: MIC, standard agar-dilution assay, Streptococcus Group 9960; type: cell-based; conditions: Streptococcus Group 9960, agar dilution
[2] = system: Pasteurella hemolytica 22C; test: MIC, broth-dilution microtiter test, Pasteurella hemolytica 22C; type: cell-based; conditions: Pasteurella hemolytica 22C, broth-dilution microtiter
Excerpt: as §1

[3] = system: Staphylococcus aureus S13E; test: MIC, standard agar-dilution assay, Staphylococcus aureus S13E; type: cell-based
[4] = system: Staphylococcus epidermidis EPI1; test: MIC, standard agar-dilution assay, Staphylococcus epidermidis EPI1; type: cell-based
[5] = system: Staphylococcus aureus X1.1; test: MIC, standard agar-dilution assay, Staphylococcus aureus X1.1; type: cell-based
[6] = system: Streptococcus Group D X66; test: MIC, standard agar-dilution assay, Streptococcus Group D X66; type: cell-based
[7] = system: Streptococcus pyogenes C203; test: In vivo protection of mice experimentally infected with S. pyogenes C203; conditions: mice, doses given 1 and 4 hours post-infection; for ED50: Streptococcus pyogenes
Experimental: The C-20 modified derivatives of this invention have shown in vivo antimicrobial activity against experimentally-induced infections in laboratory animals. When two doses of test compound were administered to mice experimentally infected with S. pyogenes C203, the activity observed was measured as an ED50 value [effective dose in mg/kg to protect 50% of the test animals: see Warren Wick, et al., J. Bacteriol. 81, 233-235 (1961)].

[8] = system: Staphylococcus aureus X400; test: MIC, standard agar-dilution assay, Staphylococcus aureus X400; type: cell-based
Mycoplasma synoviae = test: MIC, broth-dilution microtiter test, Mycoplasma synoviae; type: cell-based
Excerpt: as §1

Streptococcus bovis 80 = test: MIC, broth-dilution microtiter test, Streptococcus bovis 80; type: cell-based
Excerpt: as §1

[9] = system: Streptococcus pyogenes C203; test: MIC, standard agar-dilution assay, Streptococcus pyogenes C203; type: cell-based
[10] = system: Pasteurella multocida 60A; test: MIC, broth-dilution microtiter test, Pasteurella multocida 60A; type: cell-based
Excerpt: as §1

[11] = system: Haemophilus influenzae R252; test: MIC, standard agar-dilution assay, Haemophilus influenzae R252; type: cell-based
Staphylococcus aureus = test: MIC, broth-dilution microtiter test, Staphylococcus aureus; type: cell-based
Excerpt: as §1

[12] = system: Haemophilus influenzae Holt; test: MIC, standard agar-dilution assay, Haemophilus influenzae Holt; type: cell-based; conditions: Haemophilus influenzae Holt; ampicillin-sensitive strain; agar dilution
Mycoplasma hyorhinis = test: MIC, broth-dilution microtiter test, Mycoplasma hyorhinis; type: cell-based; conditions: Mycoplasma hyorhinis, broth-dilution microtiter
Excerpt: as §1

Mycoplasma hyopneumoniae = test: MIC, broth-dilution microtiter test, Mycoplasma hyopneumoniae; type: cell-based
Excerpt: as §1

[13] = system: Staphylococcus epidermidis EPI2; test: MIC, standard agar-dilution assay, Staphylococcus epidermidis EPI2; type: cell-based
[14] = system: Streptococcus pneumoniae Park I; test: microbe, parasite or virus in culture; type: cell-based
[15] = system: Staphylococcus aureus V41; test: MIC, standard agar-dilution assay, Staphylococcus aureus V41; type: cell-based
[16] = Mycoplasma gallisepticum, broth-dilution microtiter
[17] = Staphylococcus aureus S13E, agar dilution
[18] = Staphylococcus epidermidis EPI1, agar dilution
[19] = Staphylococcus aureus X1.1, agar dilution
[20] = Streptococcus Group D X66, agar dilution
[21] = Staphylococcus aureus X400, methicillin-resistant strain, agar dilution
[22] = Streptococcus bovis 80, broth-dilution microtiter
[23] = Streptococcus pyogenes C203, agar dilution
[24] = Pasteurella multocida 60A, avian isolate, broth-dilution microtiter
[25] = Haemophilus influenzae R252, ampicillin-resistant strain, agar dilution
[26] = Mycoplasma hyopneumoniae, broth-dilution microtiter
[27] = Staphylococcus epidermidis EPI2, agar dilution
[28] = Streptococcus pneumoniae Park I, agar dilution
[29] = Staphylococcus aureus V41, penicillin-resistant strain, agar dilution

## 20-DH-20-O-(Phenylsulfinyl)desmycosin [Compound 25]
Mycoplasma gallisepticum; [16]
  MIC: < 0.05 µg/mL
[1]
  MIC: 12.5 µg/mL
Streptococcus Group 9960
  MIC: 4 µg/mL
[2]
  MIC: 12.5 µg/mL
[3]; [17]
  MIC: 0.25 µg/mL
[4]; [18]
  MIC: 0.25 µg/mL
[5]; [19]
  MIC: 0.25 µg/mL
[6]; [20]
  MIC: 4 µg/mL
[7]; oral
  ED50, Oral: 45 mg/kg × 2
[7]; subcutaneous
  ED50, Subcutaneous: 5.0 mg/kg × 2
[8]; [21]
  MIC: 0.25 µg/mL
Mycoplasma synoviae; Mycoplasma synoviae, broth-dilution microtiter
  MIC: 0.19 µg/mL
Streptococcus bovis 80; [22]
  MIC: 3.12 µg/mL
[9]; [23]
  MIC: 0.25 µg/mL
[10]; [24]
  MIC: 6.25 µg/mL
[11]; [25]
  MIC: 4 µg/mL
Staphylococcus aureus; broth-dilution microtiter
  MIC: 0.39 µg/mL
[12]
  MIC: 8 µg/mL
Mycoplasma hyorhinis
  MIC: -- (Not active at 50 mcg/ml, the highest level tested)
Mycoplasma hyopneumoniae; [26]
  MIC: 12.5 µg/mL
[13]; [27]
  MIC: 0.12 µg/mL

## CCC(=O)OC1C(OC2C(CCCl)CC(C)C(=O)C=CC(C)=CC(COC3OC(C)C(O)C(OC)C3OC)C(CC)OC(=O)CC(O)C2C)OC(C)C(O)C1N(C)C (stereo not drawn) [Compound 69, 20-DH-DO-20-Chloro-2'-O-propionyldesmycosin]
[14]; [28]
  MIC: 0.25 µg/mL (≈ 0.295 µM)
Mycoplasma gallisepticum; [16]
  MIC: 0.39 µg/mL (≈ 0.46 µM)
[1]
  MIC: 25 µg/mL (≈ 29.5 µM)
Streptococcus Group 9960
  MIC: 8 µg/mL (≈ 9.43 µM)
[2]
  MIC: 25 µg/mL (≈ 29.5 µM)
[3]; [17]
  MIC: 0.25 µg/mL (≈ 0.295 µM)
[4]; [18]
  MIC: 0.25 µg/mL (≈ 0.295 µM)
[5]; [19]
  MIC: 0.25 µg/mL (≈ 0.295 µM)
[6]; [20]
  MIC: 8 µg/mL (≈ 9.43 µM)
[7]; oral
  ED50, Oral: 27 mg/kg × 2
[7]; subcutaneous
  ED50, Subcutaneous: 3.3 mg/kg × 2
[8]; [21]
  MIC: 0.5 µg/mL (≈ 0.589 µM)
Streptococcus bovis 80; [22]
  MIC: 6.25 µg/mL (≈ 7.37 µM)
[9]; [23]
  MIC: 2 µg/mL (≈ 2.36 µM)
[15]; [29]
  MIC: 0.25 µg/mL (≈ 0.295 µM)
[10]; [24]
  MIC: 2.5 µg/mL (≈ 2.95 µM)
[11]; [25]
  MIC: 16 µg/mL (≈ 18.9 µM)
Staphylococcus aureus; broth-dilution microtiter
  MIC: 0.78 µg/mL (≈ 0.919 µM)
[12]
  MIC: 16 µg/mL (≈ 18.9 µM)
Mycoplasma hyorhinis
  MIC: 50 µg/mL (≈ 58.9 µM)
Mycoplasma hyopneumoniae; [26]
  MIC: 12.5 µg/mL (≈ 14.7 µM)
[13]; [27]
  MIC: 0.12 µg/mL (≈ 0.141 µM)

## CCC(=O)OC1C(C)OC(OC2C(CCN3C(=O)c4ccccc4C3=O)CC(C)C(=O)C=CC(C)=CC(COC3OC(C)C(O)C(OC)C3OC)C(CC)OC(=O)CC(O)C2C)C(OC(=O)CC)C1N(C)C (stereo not drawn) [Compound 66, 20-DH-DO-20-N-Phthalimido-2',4'-di-O-propionyldesmycosin]
[14]; [28]
  MIC: 0.5 µg/mL (≈ 0.493 µM)
Mycoplasma gallisepticum; [16]
  MIC: 0.09 µg/mL (≈ 0.0887 µM)
[1]
  MIC: 25 µg/mL (≈ 24.6 µM)
Streptococcus Group 9960
  MIC: 8 µg/mL (≈ 7.88 µM)
[2]
  MIC: 25 µg/mL (≈ 24.6 µM)
[3]; [17]
  MIC: 0.5 µg/mL (≈ 0.493 µM)
[4]; [18]
  MIC: 0.5 µg/mL (≈ 0.493 µM)
[5]; [19]
  MIC: 0.5 µg/mL (≈ 0.493 µM)
[6]; [20]
  MIC: 8 µg/mL (≈ 7.88 µM)
[7]; oral
  ED50, Oral: 31 mg/kg × 2
[7]; subcutaneous
  ED50, Subcutaneous: > 6.3 mg/kg × 2
[8]; [21]
  MIC: 1 µg/mL (≈ 0.985 µM)
Streptococcus bovis 80; [22]
  MIC: 6.25 µg/mL (≈ 6.16 µM)
[9]; [23]
  MIC: 2 µg/mL (≈ 1.97 µM)
[15]; [29]
  MIC: 0.5 µg/mL (≈ 0.493 µM)
[10]; [24]
  MIC: 25 µg/mL (≈ 24.6 µM)
[11]; [25]
  MIC: 64 µg/mL (≈ 63 µM)
Staphylococcus aureus; broth-dilution microtiter
  MIC: 0.78 µg/mL (≈ 0.768 µM)
[12]
  MIC: 64 µg/mL (≈ 63 µM)
Mycoplasma hyorhinis
  MIC: 50 µg/mL (≈ 49.3 µM)
Mycoplasma hyopneumoniae; [26]
  MIC: 25 µg/mL (≈ 24.6 µM)
[13]; [27]
  MIC: 0.25 µg/mL (≈ 0.246 µM)

## CCC1OC(=O)CC(O)C(C)C(OC2OC(C)C(O)C(N(C)C)C2O)C(CCOc2cccc(N(C)C)c2)CC(C)C(=O)C=CC(C)=CC1COC1OC(C)C(O)C(OC)C1OC (stereo not drawn) [Compound 39, 20-DH-20-O-[m-(N,N-Dimethylamino)phenyl]desmycosin]
[14]; Streptococcus pneumoniae
  MIC: 1 µg/mL (≈ 1.12 µM)
Mycoplasma gallisepticum; Mycoplasmoides gallisepticum
  MIC: 1.56 µg/mL (≈ 1.75 µM)
[1]; read-out: MIC
  MIC: 25 µg/mL (≈ 28 µM)
Streptococcus Group 9960; GROUP9960, read-out: MIC
  MIC: 8 µg/mL (≈ 8.96 µM)
[2]; read-out: MIC
  MIC: > 50 µg/mL
[3]; Staphylococcus aureus, S13E
  MIC: 0.5 µg/mL (≈ 0.56 µM)
[4]; Staphylococcus epidermidis, EPI1
  MIC: 0.5 µg/mL (≈ 0.56 µM)
[5]; Staphylococcus aureus, X1.1
  MIC: 0.5 µg/mL (≈ 0.56 µM)
[6]
  MIC: 4 µg/mL (≈ 4.48 µM)
[7]; C203, sc, subcutaneous, read-out: ED50, Subcutaneous
  ED50: 6.7 mg/kg
[7]; C203, oral, read-out: ED50, Oral
  ED50: 19 mg/kg
[8]; Staphylococcus aureus, X400
  MIC: 0.5 µg/mL (≈ 0.56 µM)
Mycoplasma synoviae; Mycoplasmopsis synoviae
  MIC: 1.56 µg/mL (≈ 1.75 µM)
Streptococcus bovis 80; Streptococcus equinus, 80
  MIC: 1.56 µg/mL (≈ 1.75 µM)
[9]; Streptococcus pyogenes, C203
  MIC: 0.25 µg/mL (≈ 0.28 µM)
[15]; Staphylococcus aureus, V41
  MIC: 0.5 µg/mL (≈ 0.56 µM)
[10]; Pasteurella multocida, 60A
  MIC: 12.5 µg/mL (≈ 14 µM)
[11]; Haemophilus influenzae, R252
  MIC: 16 µg/mL (≈ 17.9 µM)
Staphylococcus aureus
  MIC: 6.25 µg/mL (≈ 7 µM)
Mycoplasma hyorhinis; read-out: MIC
  MIC: 25 µg/mL (≈ 28 µM)
Mycoplasma hyopneumoniae; Mesomycoplasma hyopneumoniae
  MIC: 6.25 µg/mL (≈ 7 µM)
[13]; Staphylococcus epidermidis, EPI2
  MIC: 0.25 µg/mL (≈ 0.28 µM)
